Assay results published in PMC1281266, “Impact of Polychlorinated Biphenyls Contamination on Estrogenic Activity in Human Male Serum” (Environmental Health Perspectives, 2005).
“Also recorded” adds a separate entry of the source.

Columns and labels:
[1] = target: T1, estrogen receptor (ER) (Homo sapiens, UniProt P03372); assay: ER-CALUX bioassay, estrogenic (ER-mediated) activity: induction of luciferase in T47D.Luc cells; format: cell-based; conditions: for ER-mediated activity (induction of ER-dependent luciferase activity), in words: individual congeners, micromolar concentrations, Figure 2A; for ER-activated activity IEF (induction equivalency factor): ratio between EC50 of E2 and the PCB concentration inducing the same level of luciferase activity
T1 construct: using the human breast carcinoma T47D.Luc cell line, stably transfected with pEREtataLuc construct; host or cells: T47D.Luc (human breast carcinoma, stably transfected with the pEREtataLuc reporter)

[2] = target: T1, estrogen receptor (ER); assay: ER-CALUX bioassay, antiestrogenicity: decrease in response to E2 in co-treated T47D.Luc cells; format: cell-based; conditions: for Effect of co-treatment on ER activation by E2, in words: co-treatment with 3 pM E2, Figure 2B; for Effect on E2-induced luciferase activity (antiestrogenicity), in words: 3 pM E2, T47D.Luc cells, Figure 3
Description: (§1) We determined estrogenic activities of 17 prevalent PCB congeners using the ER-CALUX bioassay (BioDetection Systems) using the human breast carcinoma T47D.Luc cell line, stably transfected with pEREtataLuc construct ([Legler et al. 1999]; [Machala et al. 2004]). ER-mediated activity was also determined in the cells treated with either total serum hexane/diethyl ether extracts or with a fraction of POPs obtained by a consequent sulfuric acid/silica fractionation. […] We determined cytotoxicity of extracts or individual PCBs by a neutral red uptake assay after a 24-hr exposure.

[3] = system: T47D.Luc cells; assay: Neutral red uptake cytotoxicity assay, 24-hr exposure; format: cell-based, human; conditions: lowest concentration causing a significant decrease of cell viability; 24-hr exposure Neutral Red uptake
Description: as §1

[4] = system: MCF-7 cells; design: method as in Arcaro et al. 1999; conditions: ref Arcaro et al. 1999; cited from earlier work
[5] = system: rat uterus; design: method as in Arcaro et al. 1999; conditions: ref Arcaro et al. 1999; cited from earlier work
[6] = system: BG1LucE2 cells; design: method as in Rogers and Denison 2000; conditions: 10 μM concentrations; ref Rogers and Denison 2000; cited from earlier work
[7] = system: MCF-7 cells; design: method as in Bonenfeld-Jorgensen et al. 2001; conditions: ref Bonenfeld-Jorgensen et al. 2001; cited from earlier work
[8] = system: rat uterus; design: method as in Li et al. 1994; conditions: at very high concentrations; ref Li et al. 1994; cited from earlier work
[9] = target: T2, AhR (Rattus norvegicus, UniProt P41738); assay: DR-CALUX luciferase reporter gene assay, dioxin-like activity; format: cell-based; conditions: data not shown
T2 construct: a luciferase reporter gene assay (DR-CALUX; BioDetection Systems, Amsterdam, the Netherlands) as described previously; rat hepatoma H4IIE.Luc by own knowledge of the DR-CALUX assay
T2 sequence (P41738 10-853): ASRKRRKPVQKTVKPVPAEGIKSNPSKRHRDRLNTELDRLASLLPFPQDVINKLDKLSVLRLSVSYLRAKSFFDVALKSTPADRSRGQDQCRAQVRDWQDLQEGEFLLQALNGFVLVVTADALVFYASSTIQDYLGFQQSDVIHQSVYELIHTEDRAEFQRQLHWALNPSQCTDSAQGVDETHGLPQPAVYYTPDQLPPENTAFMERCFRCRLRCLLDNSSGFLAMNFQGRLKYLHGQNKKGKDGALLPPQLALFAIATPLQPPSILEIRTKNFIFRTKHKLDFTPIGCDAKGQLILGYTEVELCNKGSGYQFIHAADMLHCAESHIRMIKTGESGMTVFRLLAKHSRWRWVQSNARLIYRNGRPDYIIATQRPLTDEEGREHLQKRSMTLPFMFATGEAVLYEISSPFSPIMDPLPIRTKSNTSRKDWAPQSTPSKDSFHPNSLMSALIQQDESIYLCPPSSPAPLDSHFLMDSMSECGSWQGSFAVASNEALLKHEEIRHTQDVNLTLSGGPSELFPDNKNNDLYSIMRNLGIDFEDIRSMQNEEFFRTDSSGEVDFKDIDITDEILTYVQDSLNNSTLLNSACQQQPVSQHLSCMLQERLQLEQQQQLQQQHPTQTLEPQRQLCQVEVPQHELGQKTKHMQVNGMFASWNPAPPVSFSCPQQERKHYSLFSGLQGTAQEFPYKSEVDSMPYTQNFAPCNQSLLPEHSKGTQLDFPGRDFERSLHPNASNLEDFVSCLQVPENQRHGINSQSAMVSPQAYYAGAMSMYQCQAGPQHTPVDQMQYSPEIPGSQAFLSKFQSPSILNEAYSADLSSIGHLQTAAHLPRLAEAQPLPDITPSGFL
Description: We determined the levels of cytochrome P450 (CYP) 1A1 and CYP1B1 mRNA in human peripheral lymphocytes by RNA extraction and a quantitative reverse-transcriptase-polymerase chain reaction (RT-PCR) method using TaqMan technology ([Canton et al. 2003]; [van Duursen et al. 2005]). The in vitro potencies of POPs present in serum to activate AhR were measured in sulfuric acid/silica-treated extracts by a luciferase reporter gene assay (DR-CALUX; BioDetection Systems, Amsterdam, the Netherlands) as described previously ([Murk et al. 1996]).

SMILES	ER-mediated activity (induction of ER-dependent luciferase activity), in words [1]	Cytotoxicity LOEC [3] [µM]	Effect on E2-induced luciferase activity (antiestrogenicity), in words [2]	further results
Clc1ccc(-c2ccc(Cl)cc2Cl)cc1 [PCB 28, 2,4,4′-Trichlorobiphenyl]	significant ER-mediated activity; also recorded: induced the ER-mediated activity	> 20		EC50 [1]: 8.23 µM; Effect of co-treatment on ER activation by E2, in words [2]: potentiated
Clc1ccc(Cl)c(-c2cc(Cl)ccc2Cl)c1 [PCB 52, 2,2′,5,5′-Tetrachlorobiphenyl]	significant ER-mediated activity; also recorded: induced the ER-mediated activity	> 20		EC50 [1]: 9.52 µM; Effect of co-treatment on ER activation by E2, in words [2]: potentiated
Clc1cccc(Cl)c1-c1c(Cl)cccc1Cl [PCB 54, 2,2′,6,6′-Tetrachlorobiphenyl]				Estrogenicity in the MCF-7 cell focus assay [4]: estrogenic; Estrogenicity in the rat uterotrophic assay [5]: estrogenic
Clc1ccc(-c2ccc(Cl)c(Cl)c2)c(Cl)c1 [PCB 66, 2,3′,4,4′-Tetrachlorobiphenyl]	significant ER-mediated activity; also recorded: induced the ER-mediated activity	> 40		EC50 [1]: 24.3 µM; ER-mediated (estrogenic) activity in BG1LucE2 cells [6]: estrogenic
Clc1ccc(-c2cc(Cl)c(Cl)cc2Cl)cc1 [PCB 74, 2,4,4′,5-Tetrachlorobiphenyl]	significant ER-mediated activity; also recorded: induced the ER-mediated activity	> 40		EC50 [1]: 17 µM
Clc1ccc(-c2ccc(Cl)c(Cl)c2)cc1Cl [PCB 77, 3,3′,4,4′-tetrachlorobiphenyl]				ER-mediated (estrogenic) activity in BG1LucE2 cells [6]: no ER-mediated activity
Clc1ccc(Cl)c(-c2c(Cl)ccc(Cl)c2Cl)c1 [PCB 95, 2,2′,3,5′,6-pentachlorobiphenyl]				ER-mediated (estrogenic) activity in BG1LucE2 cells [6]: estrogenic
Clc1ccc(-c2cc(Cl)c(Cl)cc2Cl)c(Cl)c1 [PCB 99, 2,2′,4,4′,5-Pentachlorobiphenyl]	only partial ER agonists; also recorded: induced the ER-mediated activity	> 40		ER-activated activity IEC (induction equivalency concentration) [1]: WI (key: NI: no significant induction/inhibition; WI: weak induction/inhibition (< 50% of estradiol maximum induction); ER-activated activity IEF (induction equivalency factor) [1]: WI (weak induction/inhibition (< 50% of estradiol maximum induction)
Clc1ccc(-c2ccc(Cl)c(Cl)c2Cl)cc1Cl [PCB 105, 2,3,3′,4,4′-Pentachlorobiphenyl]	only partial ER agonists; also recorded: induced the ER-mediated activity	> 40		ER-activated activity IEC (induction equivalency concentration) [1]: WI (key: NI: no significant induction/inhibition; WI: weak induction/inhibition (< 50% of estradiol maximum induction); ER-activated activity IEF (induction equivalency factor) [1]: WI (weak induction/inhibition (< 50% of estradiol maximum induction)
Clc1ccc(-c2cc(Cl)c(Cl)cc2Cl)cc1Cl [PCB 118, 2,3′,4,4′,5-Pentachlorobiphenyl]		> 20		
Clc1ccc(-c2cc(Cl)c(Cl)c(Cl)c2)cc1Cl [PCB 126, 3,3′,4,4′,5-Pentachlorobiphenyl]		> 40	not elicited	
Clc1cc(Cl)c(-c2ccc(Cl)c(Cl)c2Cl)cc1Cl [PCB 138, 2,2′,3,4,4′,5′-Hexachlorobiphenyl]	did not induce	20	significantly decreased	IC50 [2]: 10.1 µM; Antiestrogenic effects in reporter gene and cell proliferation MCF-7 assays [7]: Antiestrogenic effects
Clc1cc(Cl)c(-c2cc(Cl)c(Cl)cc2Cl)cc1Cl [PCB 153, 2,2′,4,4′,5,5′-Hexachlorobiphenyl]		20		Estrogenicity in the acute 2-day immature rat uterine weight assay [8]: estrogenic; Antiestrogenic effects in reporter gene and cell proliferation MCF-7 assays [7]: Antiestrogenic effects
Clc1ccc(-c2cc(Cl)c(Cl)c(Cl)c2Cl)cc1Cl [PCB 156, 2,3,3′,4,4′,5-Hexachlorobiphenyl]		40		Antiestrogenicity IhEF (inhibitory equivalency factor) [2]: WI (key: NI: no significant induction/inhibition; WI: weak induction/inhibition (< 50% of estradiol maximum induction; < 50% decrease in induction of 3 pM E2)); Antiestrogenicity IC50 ([2]; 50% decrease in luciferase activity induced by 3 pM E2, T47D.Luc cells): WI (weak induction/inhibition (< 50% of estradiol maximum induction; < 50% decrease in induction of 3 pM E2))
Clc1ccc(-c2cc(Cl)c(Cl)c(Cl)c2Cl)c(Cl)c1Cl [PCB 170, 2,2′,3,3′,4,4′,5-Heptachlorobiphenyl]	did not induce	25	significantly decreased	IC50 [2]: 16 µM
Clc1cc(Cl)c(-c2cc(Cl)c(Cl)c(Cl)c2Cl)cc1Cl [PCB 180, 2,2′,3,4,4′,5,5′-Heptachlorobiphenyl]	did not induce	20	significantly decreased	IC50 [2]: 9.32 µM; Antiestrogenic effects in reporter gene and cell proliferation MCF-7 assays [7]: Antiestrogenic effects
Clc1cc(Cl)c(-c2c(Cl)c(Cl)cc(Cl)c2Cl)cc1Cl [PCB 187, 2,2′,3,4′,5,5′,6-Heptachlorobiphenyl]		20		
Clc1cc(-c2cc(Cl)c(Cl)c(Cl)c2Cl)c(Cl)c(Cl)c1Cl [PCB 194, 2,2′,3,3′,4,4′,5,5′-Octachlorobiphenyl]	did not induce	25	significantly decreased	IC50 [2]: 14.1 µM
Clc1cc(Cl)c(-c2c(Cl)c(Cl)cc(Cl)c2Cl)c(Cl)c1Cl [PCB 199, 2,2′,3,3′,4′,5,6,6′-Octachlorobiphenyl]	did not induce	20	significantly decreased	IC50 [2]: 2.85 µM
Clc1cc(Cl)c(-c2c(Cl)c(Cl)c(Cl)c(Cl)c2Cl)cc1Cl [PCB 203, 2,2′,3,4,4′,5,5′,6-Octachlorobiphenyl]	did not induce	20	significantly decreased	IC50 [2]: 3.2 µM
ClC(Cl)=C(c1ccc(Cl)cc1)c1ccc(Cl)cc1 [p,p′-DDE]				Estrogenic activity, in words ([1]; data not shown): weak estrogenic; Dioxin-like activity, in words [9]: no dioxin-like activity
